The values that follow come from patent US9855285B2, “Method of inhibiting the expression of IL-22 in activated T-cells” (LEO PHARMA A/S, priority 2012, dated 2018).

For assay [1], the system named is human Th1/Th17 cells. Put plainly: In vitro assay using activated human T-cells differentiated into Th1/Th17 cells; cytokines released in the supernatant. The class given is cell-based. How it is done:
CD4+ T cells were first negatively isolated from human peripheral blood of healthy donors using RosetteSep® separation system from STEMCELL.
Subsequently, CD4+ T cells were activated by crosslinking the cell surface proteins CD3 and CD28 with specific antibodies.
To induce Th1/Th17 differentiation, activated CD4+ T cells were then cultured in flasks at density of 2-5×10^6 cells per ml of culture in X-VIVO 15 serum-free medium in presence of growth and differentiation factors cocktail, containing the following: • rhIL-2 at 10 ng/ml • rhTGF-β at 10 ng/ml • rhIL-1β at 10 ng/ml • rhIL-6 at 10 ng/ml • rhIL-23 at 20 ng/ml • Antibody anti-IL-4 at 1 μg/ml • Antibody anti-IL-13 at 1 μg/ml
Culture media had been refreshed every second day and T cells were cultured up to 5-7 days to allow a complete differentiation into Th1/Th17 cells.
Once the T cells are differentiated into Th1/Th17 cells, cells are rinsed from the differentiation media and placed in assay media (X-VIVO 15 media containing 10 ng/ml rhIL-2 only) at the final concentration of 1-1.5×10^6 cells/ml in wells with 0.250 ml cell suspension per well (0.25-0.375×10^6 cells/well/sample) with and without test compound treatment for 24 hours. At the termination time point, the effect of anti-inflammatory drugs is assessed by measuring the level of phenotype related cytokines released in the cell culture supernatants. Duplicates and cells from different donors are used for each treatment.
After differentiation for 5-6 days, all the cells were carefully washed and placed in growth media containing IL-2 (X-VIVO+10 ng/ml IL-2) at a final concentration of 1-1.5×10^6 cells/ml. […] Assays were performed in duplicates and included undifferentiated human T cells (negative control) and treated or untreated differentiated human Th1/Th17 cells. All cells were cultured under similar conditions in assay media containing 0.1% DMSO with or without test compounds.
Th1/Th17 cells were treated for 24 hours with or without test compounds.
Supernatants were collected from all samples and assessed for cytokine expression (IL-6, IL-8, IL-17, IL-22 and TNF-α). All cytokines were measured (as pg/ml) using MSD kits except IL-22 which was measured by ELISA.
Data analysis and graphs were made in Excel or GraphPad Prism. Statistical analysis was made using 1 way ANOVA corrected by Dunnett's Multiple Comparison Test.

Assay [2] deals with keratinocyte proliferation. The settings on record: cited from earlier work.
Setting [3] is: PDE4 inhibitor 1 μM alone or in combination with calcipotriol 100 nM.
Where [4] appears, read: test compound alone, 24 hours, ELISA.
The mark [5] stands for this setting: vitamin D analogue 100 nM in combination with Compound A 1 μM.

“Also recorded” adds a separate entry of the source.

Turning to `N#Cc1ccc(Oc2ccc3c(c2)COB3O)cc1` [AN2728, 4-(1-hydroxy-1,3-dihydro-2,1-benzoxaborol-5-yloxy)benzonitrile], the “expression and secretion of IL-22” value in assay [1] (setting [3]) is recorded as “comparable efficacy to Compound A”.
Regarding `CCCNC(=O)COc1c(C(=O)Cc2ccnc(Cl)c2Cl)ccc(OC)c1OC` [Compound A, 2-{6-[2-(2,3-dichloropyridin-4-yl)acetyl]-2,3-dimethoxyphenoxy}-N-propylacetamide], the “expression of IL-22” value in assay [1] (PDE4 inhibitor 1 μM alone, compared to vehicle treated control) is given as “increases”. In assay [1] (test compound alone, 24 hours), the “expression of IL-6” value is recorded as “weakly; also recorded: significantly inhibits”, the “expression of IL-8” value was “did not have any effect”, the “expression of IL-17” value was “to some degree” and the “expression of TNFα” value is reported as “strongly decreased; also recorded: significantly inhibits”. Also, the “expression of IL-22” value in assay [1] (setting [4]) is on record as “dose-dependent upregulation; also recorded: increased; also recorded: significantly increases”.
Consider `COc1cccc(Nc2c(C(N)=O)cnc3c(C)cc(S(=O)(=O)c4cccc(C(=O)N(C)C)c4)cc23)c1.Cl` [GSK256066, 6-[3-(N,N-dimethylcarbamoyl)phenylsulfonyl]-4-(3-methoxyphenylamino)-8-methylquinoline-3-carboxamide hydrochloride], for which the “expression and secretion of IL-22” value in assay [1] (setting [3]) is recorded as “comparable efficacy to Compound A”.
Consider `O=C(Nc1c(Cl)cncc1Cl)c1ccc(OC(F)F)c(OCC2CC2)c1` [Roflumilast, 3-(cyclopropylmethoxy)-N-(3,5-dichloropyridin-4-yl)4-(difluoromethoxy)benzamide], for which the “expression and secretion of IL-22” value in assay [1] (setting [3]) is given as “comparable efficacy to Compound A”.
As to `CCOc1ccc(-c2nc(-c3cccc(C(=O)O)n3)cs2)cc1OCC` [Tetomilast, 6-[2-(3,4-diethoxyphenyl)thiazol-4-yl]pyridine-2-caboxylic acid], the “expression and secretion of IL-22” value in assay [1] (setting [3]) is reported as “comparable efficacy to Compound A”.
As to `C=C1/C(=C\C=C2/CCC[C@]3(C)[C@@H]([C@H](C)/C=C/[C@@H](O)C4CC4)CC[C@@H]23)C[C@@H](O)C[C@@H]1O` [calcipotriol, Calcipotriol], the “upregulation of IL-22 expression” value in assay [1] (calcipotriol 10 pM together with Compound A 1 μM) is “lost”; in assay [1] (calcipotriol 100 pM together with Compound A 1 μM) it was “inhibited the upregulation”; in assay [1] (calcipotriol 500 pM together with Compound A 1 μM), “inhibited the upregulation”; in assay [1] (calcipotriol 1 nM together with Compound A 1 μM), “inhibited the upregulation”; in assay [1] (calcipotriol 100 nM together with Compound A 1 μM), “inhibited the upregulation”. In assay [1] (test compound alone, 24 hours), the “expression of IL-6” value is listed as “did not have any effect”. The “expression of IL-8” value in assay [1] (test compound alone, 24 hours) was “strongly inhibited”; in assay [1] (test compound alone, 24 hours, listed as Calcipotriol), “inhibits”. The “expression of IL-17” value in assay [1] (test compound alone, 24 hours) is reported as “to some extent”. Further, the “expression of TNFα” value in assay [1] (test compound alone, 24 hours) is “did not have any effect”. Further, the “expression of IL-22” value is reported as “strongly inhibiting; also recorded: downregulate; also recorded: strongly inhibited” in assay [1] (setting [4]) and “significantly inhibits” in assay [1] (test compound alone, 24 hours, ELISA, listed as Calcipotriol). For the same compound, the “expression and secretion of IL-22” value in assay [1] (vitamin D analogue 100 nM alone, compared to vehicle treated control) is on record as “significantly inhibits”; in assay [1] (setting [5]), “comparable efficacy as Calcipotriol”. The “concentration required to affect keratinocyte proliferation” value in assay [2] is recorded as 28 nM.
Turning to `C=C1/C(=C\C=C2/CCC[C@]3(C)[C@@H]([C@H](C)CCCC(C)(C)O)CC[C@@H]23)C[C@@H](O)C[C@@H]1O` [calcitriol], the “expression of IL-22” value in assay [1] (setting [4]) is on record as “downregulate”. Moreover, the “expression and secretion of IL-22” value in assay [1] (setting [5]) is “comparable efficacy as Calcipotriol”.
On the same counts, the results for `C=C1/C(=C\C=C2/CCC[C@]3(C)[C@@H]([C@H](C)OCCC(C)(C)O)CC[C@@H]23)C[C@@H](O)C[C@@H]1O` [maxacalcitol] are “downregulate” and “comparable efficacy as Calcipotriol”.
The corresponding values for `C=C1/C(=C\C=C2/CCC[C@]3(C)[C@@H]([C@H](C)CC[C@@H](O)C(C)C)CC[C@@H]23)C[C@@H](O)C[C@@H]1O` [tacalcitol] are “downregulate” and “comparable efficacy as Calcipotriol”.
